Assay results: patent US20250163038A1, “CBL-B MODULATORS AND USES THEREOF” (Nimbus Clio, Inc., priority 2021, published 2025)

Assays:
[1] = biological target: Recombinant human Cbl-b (aa 36-427) (Homo sapiens, UniProt Q13191); assay: Cbl-b Biochemical Assay (TR-FRET); conditions: read-out: TR-FRET hCbl-b IC50
[2] = system: Jurkat (clone E6-1) cells with NFAT luciferase reporter; assay: Jurkat reporter assay (NFAT Luciferase); format: cell-based; conditions: Homo sapiens; Jurkat NFAT luciferase reporter cells, anti-CD3 stimulation, 6 hr; read-out: Jurkat NFAT EC50
[3] = biological target: T1, Recombinant human c-Cbl (aa 47-435) (Homo sapiens, UniProt P22681); assay: c-Cbl Biochemical Assay (TR-FRET); conditions: hc-Cbl Biochemical Assay (TR-FRET); read-out: TR-FRET hcCbl IC50
T1 sequence (P22681 47-435): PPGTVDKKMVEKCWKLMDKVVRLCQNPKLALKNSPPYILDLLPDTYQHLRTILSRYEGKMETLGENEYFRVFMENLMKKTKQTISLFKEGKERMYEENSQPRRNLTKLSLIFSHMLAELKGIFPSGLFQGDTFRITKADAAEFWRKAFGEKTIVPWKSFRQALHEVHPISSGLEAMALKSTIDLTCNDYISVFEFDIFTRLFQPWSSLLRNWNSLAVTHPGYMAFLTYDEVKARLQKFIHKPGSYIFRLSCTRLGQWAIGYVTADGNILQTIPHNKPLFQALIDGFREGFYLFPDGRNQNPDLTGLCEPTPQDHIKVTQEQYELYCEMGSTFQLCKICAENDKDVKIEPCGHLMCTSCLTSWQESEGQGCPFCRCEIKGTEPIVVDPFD

Chain of Recombinant human Cbl-b (aa 36-427) (Q13191 36-427): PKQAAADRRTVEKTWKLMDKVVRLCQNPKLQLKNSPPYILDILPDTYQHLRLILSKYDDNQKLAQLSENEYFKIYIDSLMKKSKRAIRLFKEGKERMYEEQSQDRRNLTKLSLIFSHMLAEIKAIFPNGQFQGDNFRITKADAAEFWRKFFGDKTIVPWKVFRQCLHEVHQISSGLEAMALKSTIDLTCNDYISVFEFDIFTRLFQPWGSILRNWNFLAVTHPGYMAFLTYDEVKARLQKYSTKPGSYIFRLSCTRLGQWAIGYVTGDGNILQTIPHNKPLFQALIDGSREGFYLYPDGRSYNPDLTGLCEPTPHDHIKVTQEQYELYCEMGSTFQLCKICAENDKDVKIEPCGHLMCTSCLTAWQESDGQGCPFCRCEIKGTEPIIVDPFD

Compound | IC50 [1] [µM] | EC50 [2] [µM] | IC50 [3] [µM]
Cn1cnnc1-c1cc(F)ccc1-c1cccc(-c2nc3cc(CO)cc(C(F)(F)F)c3o2)c1 [Example X-2, (2-(4′-Fluoro-2′-(4-methyl-4H-1,2,4-triazol-3-yl)-[1,1′-biphenyl]-3-yl)-7-(trifluoromethyl)benzo[d]oxazol-5-yl)methanol] | < 0.2 | 1 to 10 | 1 to 10
Cn1cnnc1-c1cc(F)ccc1-c1cccc(-c2nc3cc(CNCC4(O)CCC4)cc(C(F)(F)F)c3o2)c1 [Example Y-3, 1-((((2-(4′-Fluoro-2′-(4-methyl-4H-1,2,4-triazol-3-yl)-[1,1′-biphenyl]-3-yl)-7-(trifluoromethyl)benzo[d]oxazol-5-yl)methyl)amino)methyl)cyclobutan-1-ol] | < 0.2 | 0.2 to 1 | 1 to 10
Cn1cnnc1-c1cc(F)ccc1-c1cccc(-c2nc3cc(CNC4(CO)COC4)cc(C(F)(F)F)c3o2)c1 [Example Z-2, (3-(((2-(4′-Fluoro-2′-(4-methyl-4H-1,2,4-triazol-3-yl)-[1,1′-biphenyl]-3-yl)-7-(trifluoromethyl)benzo[d]oxazol-5-yl)methyl)amino)oxetan-3-yl)methanol] | < 0.2 | 1 to 10 | 1 to 10
COc1cc(CNCC2CCC2)cc2nc(-c3cccc(-c4ccc(F)cc4-c4nncn4C)c3)oc12 [FA-1, 1-Cyclobutyl-N-((2-(4′-fluoro-2′-(4-methyl-4H-1,2,4-triazol-3-yl)-[1,1′-biphenyl]-3-yl)-7-methoxybenzo[d]oxazol-5-yl)methyl)methanamine] | < 0.2 | < 0.2 | < 0.2
Cn1cnnc1-c1cc(F)ccc1-c1cccc(-c2nc3cc(CNCC4CC4)cc(C(F)(F)F)c3o2)c1 [FB-2, 1-Cyclopropyl-N-((2-(4′-fluoro-2′-(4-methyl-4H-1,2,4-triazol-3-yl)-[1,1′-biphenyl]-3-yl)-7-(trifluoromethyl)benzo[d]oxazol-5-yl)methyl)methanamine] | < 0.2 | < 0.2 | < 0.2
COCC1(CNCc2cc(C(F)(F)F)c3oc(-c4cccc(-c5ccc(F)cc5-c5nncn5C)c4)nc3c2)CCCC1 [FC-2, 1-(2-(4′-Fluoro-2′-(4-methyl-4H-1,2,4-triazol-3-yl)-[1,1′-biphenyl]-3-yl)-7-(trifluoromethyl)benzo[d]oxazol-5-yl)-N-((1-(methoxymethyl)cyclopentyl)methyl)methanamine] | < 0.2 | 0.2 to 1 | < 0.2
Cn1cnnc1-c1cc(F)ccc1-c1cccc(-c2nc3cc(CNCCF)cc(C(F)(F)F)c3o2)c1 [FD-2, 2-fluoro-N-((2-(4′-fluoro-2′-(4-methyl-4H-1,2,4-triazol-3-yl)-[1,1′-biphenyl]-3-yl)-7-(trifluoromethyl)benzo[d]oxazol-5-yl)methyl)ethan-1-amine] | < 0.2 | 0.2 to 1 | < 0.2
Cc1cc(CO)cc2nc(-c3cccc(-c4ccc(F)cc4-c4nncn4C)c3)oc12 [FE-3, (2-(4′-Fluoro-2′-(4-methyl-4H-1,2,4-triazol-3-yl)-[1,1′-biphenyl]-3-yl)-7-methylbenzo[d]oxazol-5-yl)methanol] | 1 to 10 | 10 to 50 | 1 to 10
Cn1cnnc1-c1cc(F)ccc1-c1cccc(-c2nc3cc(CO)cc(C(C)(F)F)c3o2)c1 [FF-6, (7-(1,1-Difluoroethyl)-2-(4′-fluoro-2′-(4-methyl-4H-1,2,4-triazol-3-yl)-[1,1′-biphenyl]-3-yl)benzo[d]oxazol-5-yl)methanol] | < 0.2 | 1 to 10 | 0.2 to 1
Cc1cc(CN[C@@H]2CCC[C@@H]2O)cc2nc(-c3cccc(-c4ccc(F)cc4-c4nncn4C)c3)oc12 [FG-2, (1S,2R)-2-(((2-(4′-Fluoro-2′-(4-methyl-4H-1,2,4-triazol-3-yl)-[1,1′-biphenyl]-3-yl)-7-methylbenzo[d]oxazol-5-yl)methyl)amino)cyclopentan-1-ol] | < 0.2 | < 0.2 | < 0.2
COc1cccc2oc(-c3cccc(-c4ccc(F)cc4-c4nncn4C)c3)nc12 [FH-2, 2-(4′-Fluoro-2′-(4-methyl-4H-1,2,4-triazol-3-yl)-[1,1′-biphenyl]-3-yl)-4-methoxybenzo[d]oxazole] | 1 to 10 | 10 to 50 | 1 to 10
CCOCCNCc1cc(C(F)(F)F)c2oc(-c3cccc(-c4ccc(F)cc4-c4nncn4C)c3)nc2c1 [FI-2, 2-Ethoxy-N-((2-(4′-fluoro-2′-(4-methyl-4H-1,2,4-triazol-3-yl)-[1,1′-biphenyl]-3-yl)-7-(trifluoromethyl)benzo[d]oxazol-5-yl)methyl)ethan-1-amine] | < 0.2 | < 0.2 | < 0.2
Cn1cnnc1-c1cc(F)ccc1-c1cccc(-c2nc3cc(CN[C@@H]4CCC[C@@H]4O)cc(C(C)(F)F)c3o2)c1 [FJ-2, (1S,2R)-2-(((7-(1,1-Difluoroethyl)-2-(4′-fluoro-2′-(4-methyl-4H-1,2,4-triazol-3-yl)-[1,1′-biphenyl]-3-yl)benzo[d]oxazol-5-yl)methyl)amino)cyclopentan-1-ol] | < 0.2 | < 0.2 | < 0.2
CCCNCc1cc(C(F)(F)F)c2oc(-c3cccc(-c4ccc(F)cc4-c4nncn4C)c3)nc2c1 [FL-2, N-((2-(4′-Fluoro-2′-(4-methyl-4H-1,2,4-triazol-3-yl)-[1,1′-biphenyl]-3-yl)-7-(trifluoromethyl)benzo[d]oxazol-5-yl)methyl)propan-1-amine] | < 0.2 | < 0.2 | < 0.2
Cn1cnnc1-c1cc(F)ccc1-c1cccc(-c2nc3cc(CNC4CC5(CCC5)C4)cc(C(F)(F)F)c3o2)c1 [FM-2, N-((2-(4′-Fluoro-2′-(4-methyl-4H-1,2,4-triazol-3-yl)-[1,1′-biphenyl]-3-yl)-7-(trifluoromethyl)benzo[d]oxazol-5-yl)methyl)spiro[3.3]heptan-2-amine] | < 0.2 | < 0.2 | < 0.2
COc1cc(CNCC2CCCC2)cc2nc(-c3cccc(-c4ccc(F)cc4-c4nncn4C)c3)oc12 [FN-1, 1-Cyclopentyl-N-((2-(4′-fluoro-2′-(4-methyl-4H-1,2,4-triazol-3-yl)-[1,1′-biphenyl]-3-yl)-7-methoxybenzo[d]oxazol-5-yl)methyl)methanamine] | < 0.2 | < 0.2 | < 0.2
CC(C)CCNCc1cc(C(F)(F)F)c2oc(-c3cccc(-c4ccc(F)cc4-c4nncn4C)c3)nc2c1 [FO-2, N-((2-(4′-Fluoro-2′-(4-methyl-4H-1,2,4-triazol-3-yl)-[1,1′-biphenyl]-3-yl)-7-(trifluoromethyl)benzo[d]oxazol-5-yl)methyl)-3-methylbutan-1-amine] | < 0.2 | < 0.2 | < 0.2
COc1cc(CN[C@@H]2CCC[C@@H]2OC)cc2nc(-c3cccc(-c4ccc(F)cc4-c4nncn4C)c3)oc12 [FQ-1, (1R,2S)—N-((2-(4′-Fluoro-2′-(4-methyl-4H-1,2,4-triazol-3-yl)-[1,1′-biphenyl]-3-yl)-7-methoxybenzo[d]oxazol-5-yl)methyl)-2-methoxycyclopentan-1-amine] | 0.2 to 1 | 1 to 10 | 0.2 to 1
COc1cc(CNC[C@H]2CCCO2)cc2nc(-c3cccc(-c4ccc(F)cc4-c4nncn4C)c3)oc12 [FR-1, (R)-1-(2-(4′-Fluoro-2′-(4-methyl-4H-1,2,4-triazol-3-yl)-[1,1′-biphenyl]-3-yl)-7-methoxybenzo[d]oxazol-5-yl)-N-((tetrahydrofuran-2-yl)methyl)methanamine] | < 0.2 | 0.2 to 1 | 0.2 to 1
COc1cc(CNC[C@@H]2CCCO2)cc2nc(-c3cccc(-c4ccc(F)cc4-c4nncn4C)c3)oc12 [FS-2, (S)-1-(2-(4′-Fluoro-2′-(4-methyl-4H-1,2,4-triazol-3-yl)-[1,1′-biphenyl]-3-yl)-7-methoxybenzo[d]oxazol-5-yl)-N-((tetrahydrofuran-2-yl)methyl)methanamine] | < 0.2 | < 0.2 | < 0.2
Cn1cnnc1-c1cc(F)ccc1-c1cccc(-c2nc3cc(CNCC4CCC4)cc(C4CC4)c3o2)c1 [FT-1, 1-Cyclobutyl-N-((7-cyclopropyl-2-(4′-fluoro-2′-(4-methyl-4H-1,2,4-triazol-3-yl)-[1,1′-biphenyl]-3-yl)benzo[d]oxazol-5-yl)methyl)methanamine] | < 0.2 | < 0.2 | < 0.2
COc1cc(CNCC2CC2)cc2nc(-c3cccc(-c4ccc(F)cc4-c4nncn4C)c3)oc12 [FU-1, 1-Cyclopropyl-N-((2-(4′-fluoro-2′-(4-methyl-4H-1,2,4-triazol-3-yl)-[1,1′-biphenyl]-3-yl)-7-methoxybenzo[d]oxazol-5-yl)methyl)methanamine] | < 0.2 | 0.2 to 1 | < 0.2
CN(Cc1cc(C(F)(F)F)c2oc(-c3cccc(-c4ccc(F)cc4-c4nncn4C)c3)nc2c1)[C@@H]1CCC[C@@H]1O [FW-3, (1S,2R)-2-(((2-(4′-Fluoro-2′-(4-methyl-4H-1,2,4-triazol-3-yl)-[1,1′-biphenyl]-3-yl)-7-(trifluoromethyl)benzo[d]oxazol-5-yl)methyl)(methyl)amino)cyclopentan-1-ol] | < 0.2 | < 0.2 | < 0.2
